Test results reported in patent US20220025331A1, “METHODS AND SYSTEMS FOR IMPROVING CELLS FOR USE IN THERAPY” (priority 2017, published 2022).
Values belong to the compound of their own block, whether it stands above or below them.

Legend:
[1] = system: adult human costal chondrocytes (ahCCs); assay: Cyto D treatment of self-assembled neocartilage from human costal chondrocytes (FIG. 18); type: cell-based; conditions: ahCCs P3 rejuvenated, 2 million cells, 2 μM at day 0-2
Procedure: Control constructs were untreated. Constructs treated with cytochalasin D (Cyto D) were treated with 2 μM at day 0-2. […] This example clearly illustrates that it is not obvious that a treatment that is beneficial for cells from one species will be beneficial when applied to cells from another species.

P3R foAC neocartilage [2] = assay: Phase 3: TCL treatment of cytochalasin D treated P3R Opt neocartilage; type: cell-based, sheep; conditions: Phase 3, P3R Opt, 2 million cells
Procedure: (§1) Chondrocyte Isolation: Fetal ovine articular chondrocytes (foACs) were harvested from the patellofemoral surfaces of 120-day gestation Dorper cross sheep obtained as medical waste (UC Davis School of Veterinary Medicine). Cartilage from the whole surface of both condyles and the trochlear groove was minced into approximately 1 mm^3 pieces, then washed and centrifuged (500 G for 5 minutes) three times with Dulbecco's Modified Eagle Medium containing 4.5 g/L glucose and GlutaMAX (DMEM; Gibco) and 2% (v/v) penicillin/streptomycin/fungizone (PSF; Lonza). The tissue was digested in 0.2% (w/v) collagenase type II (Worthington) in DMEM containing 3% (v/v) fetal bovine serum (FBS; Atlanta Biologicals) for 18 hours at 37° C. with gentle rocking. After digestion, the resultant cell solutions were filtered through 70 μm cell strainers. For Studies 1-3, foACs were washed with ACK buffer (154.4 mM ammonium chloride (Sigma), 10 mM potassium bicarbonate (Fisher Scientific), 50 mM EDTA tetrasodium salt (Acros Organics) in ultrapure water for three minutes as previously described. These primary (P0) foACs were then frozen in DMEM with 20% (v/v) DMSO (Sigma) and 10% (v/v) FBS.
Chondrocyte Expansion and Redifferentiation: Previously frozen P0 foACs were seeded in T-225 flasks at 1.5×10^4 cells/cm^2 and expanded in chemically defined chondrogenic medium (CHG medium) (DMEM containing 1% PSF, 1% ITS+ premix (BD Biosciences), 1% non-essential amino acids (Gibco), 100 nM dexamethasone (Sigma), 50 mg/mL ascorbate-2-phosphate (Sigma), 40 g/mL L-proline (Sigma), and […] sodium pyruvate (Sigma)) with 2% FBS and chondrogenically tuned TFP supplementation (1 ng/mL TGF-μ1, 5 ng/mL bFGF, 10 ng/mL PDGF; al from PeproTech). Media was exchanged every 2-3 days. At confluence, cells were lifted with 0.5% Trypsin-EDTA (Gibco) for 5 minutes followed by digestion of the cell layers with DMEM containing 0.2% collagenase type II and 2% FBS for approximately 1 hour at 37° C., triturating every 20 minutes. […] Following dissociation of the aggregates, cells were filtered through a 70 μm cell strainer and counted. […]

P3R foAC neocartilage [3] = assay: Phase 2: cytochalasin D and hyaluronidase treatment of P3R (passaged, redifferentiated) neocartilage; type: cell-based, sheep; conditions: for neocartilage thickness / neocartilage wet weight / construct diameter: P3R Opt; for construct diameter: Cyto D 2 μM first 48 hours, Hya 200 units/mL at seeding
Procedure: as §1
(§2) Chondrocyte Expansion and Redifferentiation: Previously frozen P0 foACs were seeded in T-225 flasks at 1.5×10^4 cells/cm^2 and expanded in chemically defined chondrogenic medium (CHG medium) (DMEM containing 1% PSF, 1% ITS+ premix (BD Biosciences), 1% non-essential amino acids (Gibco), 100 nM dexamethasone (Sigma), 50 mg/mL ascorbate-2-phosphate (Sigma), 40 g/mL L-proline (Sigma), and […] sodium pyruvate (Sigma)) with 2% FBS and chondrogenically tuned TFP supplementation (1 ng/mL TGF-μ1, 5 ng/mL bFGF, 10 ng/mL PDGF; al from PeproTech). Media was exchanged every 2-3 days. At confluence, cells were lifted with 0.5% Trypsin-EDTA (Gibco) for 5 minutes followed by digestion of the cell layers with DMEM containing 0.2% collagenase type II and 2% FBS for approximately 1 hour at 37° C., triturating every 20 minutes. The resulting cell solution was filtered through a 70 μm cell strainer and reseeded into T-225 flasks to achieve three passages (P3). P3 foACs underwent aggregate redifferentiation (P3R) as previously described. Briefly, 750,000 cells/mL CHG medium containing TGB supplementation (10 ng/mL TGF-β1, 100 ng/mL GDF-5, 100 ng/mL BMP-2; al from PeproTech) were cultured in 100 mm×20 mm petri dishes coated with 1% (w/v) molecular biology grade agarose (Thermo Fisher Scientific) made with phosphate buffered saline (PBS; Sigma) to create a non-adherent environment. Aggregate cultures were maintained on an orbital shaker at 60 rpm for the first 3 days and remained static for the remainder of the 14-day redifferentiation period. Media was exchanged every 2-3 days. At the end of the culture period, aggregates were digested with 0.5% Trypsin-EDTA for 20 minutes, followed by 0.2% collagenase in DMEM with 2% FBS for approximately 2 hours at 37° C., triturating every 20 minutes. Following dissociation of the aggregates, cells were filtered through a 70 μm cell strainer and counted.
(§3) Neocartilage Construct Seeding and Culture: P0, P3, or P3R foACs were self-assembled into engineered neocartilage constructs in non-adherent agarose wells. A sterile stainless steel mold consisting of 5 mm diameter cylindrical posts was inserted into a 48-well plate, each well containing 1 mL molten 2% (w/v) agarose to create a single agarose well per plate well. After solidification of the agarose at room temperature, the mold was removed. Agarose wells were filled with CHG medium exchanged twice over the course of 5 days to ensure saturation of the agarose before seeding. For each phase, cells were seeded into 5 mm agarose wells in 100 μL CHG medium per well. In Phase 1, P0 or P3R foACs were each seeded at five densities: 2, 3, 4, 5, and 6 million cells per construct. In Phase 2, P3 and P3R foACs were seeded at 2 million cells per construct. In Phase 3, 2 million P3R foACs were seeded. […]

P3 and P3R foACs = assay: Chondrocyte F-actin visualization (phalloidin staining); type: cell-based, sheep
Procedure: Chondrocyte Actin Visualization: In Phase 2, to visualize the effects of cytochalasin D treatment on cytoskeletal-mediated chondrogenic redifferentiation, F-actin staining was performed on untreated P0 foACs and both cytochalasin D treated and untreated P3 and P3R foACs. Approximately 8×10^3 cells/cm^2 were allowed to attach to glass slides for 1 hour in the presence of 2% FBS. Non-adherent cells were washed away with two exchanges of PBS, followed by the fixation of attached cells in 3.9% formaldehyde in PBS for 10 minutes. After another two washes with PBS, fixed cells were permeabilized with 0.1% Triton-X 100 (Sigma) in PBS for 5 minutes. Following two washes with PBS, cells were stained with CF594-conjugated phalloidin (Biotium; 1200 dilution in PBS) for 30 minutes. Excess stain was washed away with two exchanges of PBS and the cells were counterstained with DAPI-containing Vectashield (Vector Laboratories) and coverslipped for visualization using a Texas Red fluorescent channel.

P3 foAC neocartilage = assay: Phase 2: cytochalasin D and hyaluronidase treatment of P3 (passaged, not redifferentiated) neocartilage; type: cell-based, sheep; conditions: P3, 2 million cells/construct; for construct diameter: Cyto D 2 μM first 48 hours, Hya 200 units/mL at seeding
Procedure: as §1, §2, §3

[4] = P3R Opt neocartilage, over the untreated group
[5] = cytochalasin D treated P3R Opt neocartilage
[6] = foACs P3 rejuvenated, 2 million cells, 2 μM at day 0-2, FIG. 18

Compound: C=C1[C@@H](C)[C@H]2[C@H](Cc3ccccc3)NC(=O)[C@]23[C@H](OC(C)=O)/C=C/[C@@](C)(O)C(=O)[C@@H](C)C/C=C/[C@H]3[C@@H]1O [cytochalasin D]
aggregate modulus [1]: significantly decreased
shear modulus [1]: significantly decreased
neocartilage diameter (P3R foAC neocartilage [2]): 6.5±0.4 mm
neocartilage thickness (P3R foAC neocartilage [2]): 0.8±0.2 mm
neocartilage wet weight (P3R foAC neocartilage [2]): 87.1 ± 3.6 mg
increase of aggregate modulus over the P0 control (P3R foAC neocartilage [3]; ACK treated P3R cells, 2 million cells/construct, vs untreated P0 control): 9.6 fold
neocartilage aggregate modulus (P3R foAC neocartilage [3]; ACK treated P3R chondrocytes seeded at 2 million cells/construct): 400 kPa
increase in compressive stiffness (aggregate modulus) (P3R foAC neocartilage [3]; [4]): 0.9 fold
increase in tensile stiffness (P3R foAC neocartilage [3]; [4]): 1.0 fold
increase in tensile strength (P3R foAC neocartilage [3]; [4]): 2.7 fold
neocartilage thickness (P3R foAC neocartilage [3]; 2 million cells/construct): 0.7±0.1 mm
neocartilage wet weight (P3R foAC neocartilage [3]; 2 million cells/construct): 28.1 ± 2.6 mg
construct diameter (P3R foAC neocartilage [3]; 2 million cells/construct): 6.5±0.2 mm
GAG/wet weight (P3R foAC neocartilage [3]; P3R neocartilage, FIG. 8C): increased
functionality index (FI) with respect to native fetal cartilage (P3R foAC neocartilage [3]; [5]): 1.1
functionality index (FI) with respect to native juvenile cartilage (P3R foAC neocartilage [3]; [5]): 0.83
compressive aggregate modulus (P3R foAC neocartilage [3]; [6]): significantly increased
shear modulus (P3R foAC neocartilage [3]; [6]): significantly increased
actin arrangement (P3 and P3R foACs; P3R chondrocytes): localized more of the actin cortically than in untreated P3R cells
cell shape and actin arrangement (P3 and P3R foACs; P3 chondrocytes): induced a rounded cell shape
neocartilage thickness (P3 foAC neocartilage): 0.4±0.1 mm
neocartilage wet weight (P3 foAC neocartilage): 8.4 ± 1.0 mg
construct diameter (P3 foAC neocartilage): 3.7±0.2 mm

neocartilage thickness (P3R foAC neocartilage [3]; 2 million cells/construct): 0.8±0.2 mm
neocartilage wet weight (P3R foAC neocartilage [3]; 2 million cells/construct): 23.9 ± 1.4 mg
construct diameter (P3R foAC neocartilage [3]; 2 million cells/construct): 5.9±0.0 mm
neocartilage thickness (P3 foAC neocartilage): 2.0±0.2 mm
neocartilage wet weight (P3 foAC neocartilage): 6.7 ± 0.4 mg
construct diameter (P3 foAC neocartilage): 2.6±0.1 mm
Compound: hyaluronidase
